Here are results for 2 compounds from paper PMC11085308, “Design, Synthesis and Biological Activity of Novel Methoxy- and Hydroxy-Substituted N-Benzimidazole-Derived Carboxamides” (Molecules, 2024).

Converted amounts (≈) assume the structure as drawn. A value given as a limit tells only on which side of the number the result lay.

One data set relates to E. coli ATCC 25922. Nature of the data set: Antibacterial activity in vitro, broth microdilution MIC. The following applies: 16–24 h at 37 °C, unit inferred. In kind it is cell-based, Escherichia coli. A general note: Dilution methods test growth across graded concentrations, often in twofold steps.
Data set [1] in a line: Solubility in water, seen as precipitation during incubation. In kind it is physicochemical. The conditions noted are these: precipitation observed during the incubation period. The source says: Therefore, it is not clear whether the observed antiproliferative activity is due to the biological activity of the compounds or to precipitation.
A short description of data set [2]: Ferric reducing/antioxidant power (FRAP assay). Also on record: FRAP: unit not given here. The following applies: Fe2+ equivalents, triplicate.
Another data set relates to E. faecalis ATCC 29212. Kind of data set: Antibacterial activity in vitro, broth microdilution MIC. In kind it is cell-based. The conditions noted are these: for Selectivity of antibacterial activity, in words: against the Gram-positive strain E. faecalis; for MIC E. faecalis ATCC 29212: broth microdilution, 16–24 h at 37 °C, unit inferred.
The test system of a further data set is A. baumannii ATCC 17978. The description is as above. In kind it is cell-based. The conditions noted are these: 16–24 h at 37 °C, unit inferred.
The next data set deals with P. aeruginosa ATCC 27853. The description is as above. In kind it is cell-based. The following applies: 16–24 h at 37 °C, unit inferred.
For a further data set, the system named is E. coli efflux del. Kind of data set: microbe, parasite or virus in culture. In kind it is cell-based, Escherichia coli. The conditions noted are these: broth microdilution, 16–24 h at 37 °C; unit inferred.
The test system of another data set is S. aureus ATCC 29213. Kind of data set: Antibacterial activity in vitro, broth microdilution MIC. In kind it is cell-based, Staphylococcus aureus. The following applies: broth microdilution, 16–24 h at 37 °C; unit inferred.
Data set [3] concerns HCT 116 (colorectal carcinoma). Kind of data set: Antiproliferative activity in vitro, MTT assay, 72 h. In kind it is cell-based. The following applies: Homo sapiens, 72 h incubation, '-' with footnote a = did not show biological activity due to precipitation. (In general: Tetrazolium dyes change colour on reduction, which living cells bring about.)
Data set [4] relates to MCF-7 (human breast cancer). Described as above. In kind it is cell-based. The conditions noted are these: MCF7, 72 h incubation.
The subject of the next data set is H460 (lung carcinoma). The data set is described as above. In kind it is cell-based. The following applies: Homo sapiens, NCI-H460, 72 h incubation.

Turning to `COc1ccc(C(=O)Nc2nc3ccccc3[nH]2)c(O)c1` [Compound 7, N-(1H-benzo[d]imidazol-2-yl)-2-hydroxy-4-methoxybenzamide], the MIC E. coli ATCC 25922 in the data set on E. coli ATCC 25922 is > 64 µM. The Solubility in water result in [1] is “low solubility in water”. In addition, the FRAP in [2] amounted to 387.28 ± 7.56. In addition, the “Selectivity of antibacterial activity, in words” value in the data set with E. faecalis ATCC 29212 was “selective antibacterial activity”. In addition, the MIC E. faecalis ATCC 29212 against E. faecalis ATCC 29212 was found to be 16 µM (≈ 4.53 µg/mL). Further, the MIC A. baumannii ATCC 17978 with A. baumannii ATCC 17978 was > 64 µM. For the same compound, the MIC P. aeruginosa ATCC 27853 in the data set on P. aeruginosa ATCC 27853 is > 64 µM. For the same compound, the MIC E. coli efflux del. against E. coli efflux del. was > 64 µM. Further, in the data set with S. aureus ATCC 29213, the MIC S. aureus ATCC 29213 was > 64 µM. The IC50 (as a rule, the concentration at which inhibition is half-maximal) is 26.4 ± 4.8 µM in [3], 36.3 ± 1.8 µM in data set [4] and > 100 µM in the data set on H460 (lung carcinoma).
Take `COc1ccc(C(=O)Nc2nc3cc(C#N)ccc3n2C)c(O)c1` [Compound 12, N-(5-cyano-1-methyl-1H-benzo[d]imidazol-2-yl)-2-hydroxy-4-methoxybenzamide]: the MIC E. coli ATCC 25922 in the data set with E. coli ATCC 25922 was > 64 µM. For the same compound, the Solubility in water result in [1] was “low solubility in water”. In addition, the FRAP in data set [2] amounted to 592.86 ± 13.86. In addition, the “Selectivity of antibacterial activity, in words” value with E. faecalis ATCC 29212 was “selective antibacterial activity”. The compound further returned an MIC E. faecalis ATCC 29212 in the data set on E. faecalis ATCC 29212 of 32 µM (≈ 10.3 µg/mL). Further, the MIC A. baumannii ATCC 17978 with A. baumannii ATCC 17978 was > 64 µM. Besides, the MIC P. aeruginosa ATCC 27853 in the data set with P. aeruginosa ATCC 27853 was > 64 µM. Besides, the MIC E. coli efflux del. against E. coli efflux del. was > 64 µM. Also, the MIC S. aureus ATCC 29213 in the data set on S. aureus ATCC 29213 is > 64 µM. The values for the IC50 (in data set [4]; in the data set on H460 (lung carcinoma)) were 3.1 µM and > 100 µM, respectively.
